Test results reported in article PMC11345841, “Exploring 2-Sulfonylpyrimidine Warheads as Acrylamide Surrogates for Targeted Covalent Inhibition: A BTK Story” (Journal of Medicinal Chemistry, 2024).
Read-outs that look alike come from different tables or passages of the source.

How the values were obtained:
Assay in all cases: KINOMEscan ScanTK
Assay type in all cases: binding
[1] = target: T1, EPHB3 (Homo sapiens, UniProt P54753)
T1 construct: purchased Eurofins DiscoverX KINOMEscan (scanTK)
T1 sequence (P54753 34-998): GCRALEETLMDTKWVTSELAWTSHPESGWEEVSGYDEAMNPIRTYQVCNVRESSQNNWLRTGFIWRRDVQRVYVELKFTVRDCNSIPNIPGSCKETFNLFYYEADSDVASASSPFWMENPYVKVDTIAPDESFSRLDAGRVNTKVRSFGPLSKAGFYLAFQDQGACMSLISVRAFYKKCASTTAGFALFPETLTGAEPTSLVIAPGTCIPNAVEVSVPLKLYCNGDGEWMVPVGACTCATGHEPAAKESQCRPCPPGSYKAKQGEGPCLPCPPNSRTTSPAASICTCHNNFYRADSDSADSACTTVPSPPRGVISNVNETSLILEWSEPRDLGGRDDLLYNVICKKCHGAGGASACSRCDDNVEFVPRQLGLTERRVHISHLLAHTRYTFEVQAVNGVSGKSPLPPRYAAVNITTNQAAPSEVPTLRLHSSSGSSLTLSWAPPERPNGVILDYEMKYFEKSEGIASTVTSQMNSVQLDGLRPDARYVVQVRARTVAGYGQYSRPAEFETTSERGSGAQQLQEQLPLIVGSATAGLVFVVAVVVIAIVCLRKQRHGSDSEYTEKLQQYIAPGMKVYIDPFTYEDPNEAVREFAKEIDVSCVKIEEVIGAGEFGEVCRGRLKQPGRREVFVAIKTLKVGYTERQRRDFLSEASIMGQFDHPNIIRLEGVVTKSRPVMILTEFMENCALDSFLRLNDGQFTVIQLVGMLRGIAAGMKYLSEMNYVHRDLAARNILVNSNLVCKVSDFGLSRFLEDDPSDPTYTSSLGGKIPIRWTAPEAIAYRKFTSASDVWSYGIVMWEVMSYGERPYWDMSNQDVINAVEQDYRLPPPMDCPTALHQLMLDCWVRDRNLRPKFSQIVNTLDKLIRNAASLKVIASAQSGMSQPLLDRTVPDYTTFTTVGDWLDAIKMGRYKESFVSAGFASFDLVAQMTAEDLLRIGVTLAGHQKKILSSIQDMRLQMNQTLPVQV

[2] = target: T2, HCK (Homo sapiens, UniProt P08631)
T2 construct: purchased Eurofins DiscoverX KINOMEscan (scanTK)

[3] = target: T3, EPHA8 (Homo sapiens, UniProt P29322)
T3 construct: purchased Eurofins DiscoverX KINOMEscan (scanTK)
T3 sequence (P29322 28-1005): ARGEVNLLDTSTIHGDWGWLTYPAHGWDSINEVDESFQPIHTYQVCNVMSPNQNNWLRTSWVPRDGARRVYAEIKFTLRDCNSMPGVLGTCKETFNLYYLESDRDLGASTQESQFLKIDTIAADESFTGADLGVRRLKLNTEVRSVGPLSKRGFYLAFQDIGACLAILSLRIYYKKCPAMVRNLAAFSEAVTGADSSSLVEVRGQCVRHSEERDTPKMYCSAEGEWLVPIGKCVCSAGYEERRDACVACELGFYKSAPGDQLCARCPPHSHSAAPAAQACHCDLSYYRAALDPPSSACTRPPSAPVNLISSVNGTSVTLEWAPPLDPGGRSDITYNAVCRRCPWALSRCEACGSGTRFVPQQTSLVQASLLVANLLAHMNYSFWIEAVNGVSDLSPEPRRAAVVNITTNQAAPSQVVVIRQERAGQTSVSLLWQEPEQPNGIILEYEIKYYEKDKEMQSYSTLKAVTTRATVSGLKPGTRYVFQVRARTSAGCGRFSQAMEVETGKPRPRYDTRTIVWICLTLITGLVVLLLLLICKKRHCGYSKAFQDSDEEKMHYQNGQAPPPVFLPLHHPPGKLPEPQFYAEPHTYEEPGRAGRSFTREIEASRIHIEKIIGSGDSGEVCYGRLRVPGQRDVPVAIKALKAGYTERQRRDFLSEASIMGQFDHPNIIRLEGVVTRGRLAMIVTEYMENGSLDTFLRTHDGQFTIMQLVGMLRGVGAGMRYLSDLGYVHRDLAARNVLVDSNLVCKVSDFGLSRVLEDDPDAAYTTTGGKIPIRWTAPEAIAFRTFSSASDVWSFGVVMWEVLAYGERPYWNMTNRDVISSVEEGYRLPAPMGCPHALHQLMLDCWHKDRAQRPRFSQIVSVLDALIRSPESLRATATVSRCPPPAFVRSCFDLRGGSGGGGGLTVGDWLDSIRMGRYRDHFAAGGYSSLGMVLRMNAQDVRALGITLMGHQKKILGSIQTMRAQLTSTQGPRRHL

T2 sequence (P08631 whole entry): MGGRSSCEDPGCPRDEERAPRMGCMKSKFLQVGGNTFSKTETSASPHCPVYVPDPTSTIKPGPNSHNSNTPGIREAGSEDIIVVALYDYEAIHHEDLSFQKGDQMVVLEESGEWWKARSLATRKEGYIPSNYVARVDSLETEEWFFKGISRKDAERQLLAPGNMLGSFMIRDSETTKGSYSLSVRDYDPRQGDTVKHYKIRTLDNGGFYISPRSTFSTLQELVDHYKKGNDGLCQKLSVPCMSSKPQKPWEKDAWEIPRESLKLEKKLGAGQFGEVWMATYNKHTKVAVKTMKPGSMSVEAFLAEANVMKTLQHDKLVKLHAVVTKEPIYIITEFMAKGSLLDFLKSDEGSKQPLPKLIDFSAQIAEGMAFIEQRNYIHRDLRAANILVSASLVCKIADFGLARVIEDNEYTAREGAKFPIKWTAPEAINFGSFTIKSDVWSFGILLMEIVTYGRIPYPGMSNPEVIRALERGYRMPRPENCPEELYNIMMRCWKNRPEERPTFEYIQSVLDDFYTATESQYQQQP

Structure (SMILES) | remaining binding at 1 µM ([1]; @1000nM, read-out: %Control) | remaining binding at 1 µM ([1]; read-out: %Control @1000nM) | remaining binding at 1 µM ([2]; @1000nM, read-out: %Control) | remaining binding at 1 µM ([2]; read-out: %Control @1000nM) | remaining binding at 1 µM ([3]; @1000nM, read-out: %Control) | remaining binding at 1 µM ([3]; read-out: %Control @1000nM) | difference in %Control versus compound Ib at 1 µM ([1]; @1000nM) | difference in %Control from compound Ib at 1 µM ([2]; @1000nM) | difference in %Control versus compound Ib at 1 µM ([3]; @1000nM)
C=CC(=O)N1CCC[C@@H](n2nc(-c3ccc(Oc4ccccc4)cc3)c3c(N)ncnc32)C1 [Compound 1g, Ibrutinib, reference compound] | 98% | 98% | 5.2% | 5.2% | 69% | 69% | – | – | –
Cc1cnc(S(C)(=O)=O)nc1N1CCCC(n2nc(-c3ccc(Oc4ccccc4)cc3)c3c(N)ncnc32)C1 (stereo not drawn) [Compound 8a, 1-(1-(5-Methyl-2-(methylsulfonyl)pyrimidin-4-yl)piperidin-3-yl)-3-(4-phenoxyphenyl)-1H-pyrazolo[3,4-d]pyrimidin-4-amine] | 100% | 100% | 6.5% | 6.5% | 82% | 82% | 2% | 1.3% | 13%
CNC(=O)c1cnc(S(C)(=O)=O)nc1N1CCCC(n2nc(-c3ccc(Oc4ccccc4)cc3)c3c(N)ncnc32)C1 (stereo not drawn) [Compound 8d, 4-(3-(4-Amino-3-(4-phenoxyphenyl)-1H-pyrazolo[3,4-d]pyrimidin-1-yl)piperidin-1-yl)-N-methyl-2-(methylsulfonyl)pyrimidine-5-carboxamide] | 100% | 100% | 12% | 12% | 93% | 93% | 2% | 6.8% | 24%

The next lines start with the values.

remaining binding at 1 µM ([1]; @1000nM, read-out: %Control) | remaining binding at 1 µM ([1]; read-out: %Control @1000nM) | remaining binding at 1 µM ([2]; @1000nM, read-out: %Control) | remaining binding at 1 µM ([2]; read-out: %Control @1000nM) | remaining binding at 1 µM ([3]; @1000nM, read-out: %Control) | remaining binding at 1 µM ([3]; read-out: %Control @1000nM) | difference in %Control versus compound Ib at 1 µM ([1]; @1000nM) | difference in %Control from compound Ib at 1 µM ([2]; @1000nM) | difference in %Control versus compound Ib at 1 µM ([3]; @1000nM) | Structure (SMILES)
97% | 97% | 16% | 16% | 77% | 77% | -1% | 10.8% | 8% | COC(=O)c1cnc(S(C)(=O)=O)nc1N1CCCC(n2nc(-c3ccc(Oc4ccccc4)cc3)c3c(N)ncnc32)C1 (stereo not drawn) [Compound 8b, Methyl 4-(3-(4-Amino-3-(4-phenoxyphenyl)-1H-pyrazolo[3,4-d]pyrimidin-1-yl)piperidin-1-yl)-2-(methylsulfonyl)pyrimidine-5-carboxylate]
78% | 78% | 28% | 28% | 88% | 88% | -20% | 22.8% | 19% | CCOC(=O)c1cnc(S(C)(=O)=O)nc1N1CCC[C@@H](n2nc(-c3ccc(Oc4ccccc4)cc3)c3c(N)ncnc32)C1 [Compound 8c, Ethyl (R)-4-(3-(4-Amino-3-(4-phenoxyphenyl)-1H-pyrazolo[3,4-d]pyrimidin-1-yl)piperidin-1-yl)-2-(methylsulfonyl)pyrimidine-5-carboxylate]
